The target in this assay is rat nNOS (Rattus norvegicus, UniProt P29476). Description: NOS inhibition assay. Format: biochemical. The settings on record: compared with inhibitor 27.

This is an account of results in paper PMC3760172 (Bioorganic & medicinal chemistry, 2013).

In the case of `Cc1cc(N)nc(COc2cccc(NCCc3cccc(F)c3)c2)c1` [Compound 24], the “decrease in potency (nNOS) relative to 27” value stood at 54 fold.
